According to ChEMBL document CHEMBL5360642, “Assimiloside A, a Glycolipid with Immunomodulatory Activity from the Northwestern Pacific Marine Sponge Hymeniacidon assimilis” (2023):
Calls of active or inactive are those of the source. No cut-off for these calls is given here.

Key:
[1] = tested on: RAW264.7; assay: Induction of ROS production in mouse RAW264.7 cells assessed as increase in intracellular ROS formation at 0.01 to 0.1 uM incubated for 3 hrs by DCFH2-DA staining based assay relative to control; assay type: functional; settings: dose 0.01-0.1 µM
[2] = tested on: RAW264.7; assay: Induction of ROS production in mouse RAW264.7 cells assessed as increase in intracellular ROS formation at 10 uM incubated for 3 hrs by DCFH2-DA staining based assay relative to control; assay type: functional
[3] = tested on: RAW264.7; assay: Induction of ROS production in mouse RAW264.7 cells assessed as increase in intracellular ROS formation at 1 uM incubated for 3 hrs by DCFH2-DA staining based assay relative to control; assay type: functional, cell-based
[4] = tested on: RAW264.7; assay: Immunomodulatory activity in mouse RAW264.7 cells assessed as stimulation of lysosomal activity at 0.01 to 10 uM incubated for 2 hrs by acridine orange based fluorescence microplate reader analysis relative to control; assay type: functional; settings: dose 0.01-10 µM

Compound: CC[C@@H](O)CCCCCCCCCC(CCCCCCCCCCC[C@@H]1CCC(=O)O1)O[C@@H]1O[C@H](CO[C@@H]2OC[C@@H](O)[C@H](O)[C@H]2O)[C@@H](O)[C@H](O)[C@H]1O[C@@H]1OC[C@@H](O)[C@H](O)[C@H]1O (some centres undefined)
- Activity [1]: 15%
- Activity [2]: 15%
- Activity [3]: inactive
- Activity [4]: 25%
